Values of other authors in patent US20210015755A1, “SECNIDAZOLE SOFT GELATIN CAPSULE AND METHODS AND USES THEREOF” (Lupin Inc., priority 2019, published 2021).

excreted intact in the urine (in vivo) | absorption after oral administration (oral administration) | SMILES | effectiveness in the treatment of bacterial vaginosis (bacterial vaginosis; 500 mg ovule formulation versus 37.5 mg metronidazole gel (Sanchez et al.)) | cure rates (bacterial vaginosis; intravaginal 750 mg ovule formulation versus 500 mg ovule composition (Aguin et al.))
50% | rapidly and completely absorbed | Cc1ncc([N+](=O)[O-])n1CC(C)O (stereo not shown) [Secnidazole, 1-(2-hydroxypropyl)-2-methyl-5-nitromidazole] |  | 
 |  | Cc1ncc([N+](=O)[O-])n1CCO [metronidazole] | significantly more effective | higher cure rates
